According to patent US10570179B2, “Substituted urea depsipeptide analogs as activators of the CLPP endopeptidase” (priority 2016, dated 2020):
≈ marks a conversion by molar mass, not a printed value. Where two headings read alike, the source gives them in different places. Numbered stars: 1 amine (or outer) side, 2 acyl side, 3 side chain; on linkers, the order of the positions; unused ones are H or OH. Bridge positions count the residues as written; N and C are the ends. Square brackets hold non-standard residues; d marks the D form. Peptide text beside a SMILES is read from it. * marks the point of attachment. Phe(3-Me) = Cc1cccc(C[C@H](N)C(=O)O)c1; Pro(4S-Me) = C[C@@H]1CN[C@H](C(=O)O)C1; X4 = O=C1CN([*:1])[C@H](C(=O)[*:2])CN1; Pro(4R-Me) = C[C@H]1CN[C@H](C(=O)O)C1; Hyp = O=C(O)[C@@H]1C[C@@H](O)CN1; NH(3-Cl-phenyl) = Clc1cccc(N*)c1; NH(4-Cl-phenyl) = Clc1ccc(N*)cc1; NH(4-Et-phenyl) = CCc1ccc(N*)cc1; aThr = C[C@H](O)[C@H](N)C(=O)O; Pip = O=C(O)[C@@H]1CCCCN1; CO = O=C([*:1])[*:2]; X2 = Fc1cc(N*)ccc1Cl

Tests used:
[1] = biological target: T1, S. aureus ClpP (Sa-ClpP) (Staphylococcus aureus, UniProt Q2G036); test: Casein-BODIPY digestion assay (ClpP activation); type: biochemical
T1 construct: made in house; host or cells: E. coli BL21 (DE3)
T1 sequence (Q2G036 whole entry): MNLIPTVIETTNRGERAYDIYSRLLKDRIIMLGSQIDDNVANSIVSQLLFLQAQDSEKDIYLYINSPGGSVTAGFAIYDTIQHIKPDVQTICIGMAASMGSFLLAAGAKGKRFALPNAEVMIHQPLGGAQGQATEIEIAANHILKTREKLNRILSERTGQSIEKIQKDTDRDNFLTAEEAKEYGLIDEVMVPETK
Procedure: The compounds were assayed in a casein digestion assay in order to determine their effect on ClpP activation. Briefly, the assay was carried out using S. aureus ClpP (“Sa-ClpP”) overexpressed in E. coli BL21 (DE3) and purified in a two-step process. Purity of the protein was assessed through SDS PAGE analysis. EC50 evaluations were conducted in triplicate in a 20 μl assay format using a method adapted from Maurizi et al. (Methods Enzymol. (1994) 244:314-331). Each well contained 10 μM saClpP, 25 μg/ml BODIPY FL casein (Invitrogen Corporation, San Diego, Calif.), and test compound in concentrations ranging between 0-1000 μM in assay buffer (50 mM Tris pH 8, 200 mM KCl, and 1 mM TCEP). The reaction took place at 37° C. Fluorescence (excitation 485 nm; emission 528 nm) was measured in five minute intervals over a 45 min period using a BioTek HT fluorescence microplate reader (BioTek Instruments, Inc., Winooski, Vt.). Velocity of each reaction was calculated and data was fit to a dose response curve using GraphPad Prism® software (GraphPad Software, Inc., La Jolla, Calif.). EC50 is the effective concentration of compound which causes 50% activation of S. aureus ClpP in the foregoing BODIPY FL casein assay.
Alternatively, the assay was carried out using EnzCheck Protease Assay (Molecular Probes, Catalog # E6638). The assay was performed in black 384 well, flat bottom, low volume plates (Greiner Bio-One, Monroe, N.C., catalog #784076). 10 μL of Tris.HCl buffer, pH 8.0 with 0.01% Triton X-100 was pipetted into each well using a Well-Mate (Thermo Scientific, Waltham, Mass.). 0.4 μL test compounds or controls (2% DMSO v/v) were added to each well using a Biomek FX liquid handling robot (Beckman Coulter, Indianapolis, Ind.). After addition of test compounds and controls, 10 μL of master mix containing 2 μM Sa-ClpP and 2 μM substrate (Bodipy-FL labeled casein) in Tris.HCl buffer, pH 8.0 with 0.01% (v/v) Triton X-100, was pipetted into each well. All assays were performed in triplicate, under linear velocity conditions. Increase in fluorescent signal following activation of Sa-ClpP by test compounds and controls was measured over time period of 30 mins using filters with excitation at 485±15 nm and emission at 520±25 nm on a PHERAstar FS Multilabel reader (BMG, Cary, N.C.). Instrument gains and enzyme linear velocity conditions were determined and validated using ADEP4, a known Sa-ClpP activator. Data analysis was done by measuring rate of casein degradation over time (slopes). Computed degradation rates (slopes) were normalized to positive (ADEP4) or negative (DMSO) controls. Using nonlinear regression curve fitting EC50 values and % activation were determined using the equation “log [agonist] vs. Response-variable slope (four parameters)-symmetrical” in the program Prism 6 (GraphPad Software, La Jolla, Calif. USA, www.graphpad.com).

[2] = tested on: S. aureus ATCC 29213; test: Minimal inhibitory concentration, microbroth dilution; type: cell-based; details: Staphylococcus aureus
Procedure: (§1) Minimal inhibitory concentrations (“MICs”) were determined using the microbroth dilution method according to Clinical Laboratory Standards Institute (CLSI; National, C.F. C. L. S., Methods for Dilution Antimicrobial Susceptibility Tests for Bacteria Grow aerobically-Seventh Edition: Approved Standard M7-A7, CLSI, Wayne, Pa., USA, 2008) and were read by visual inspection. Two fold serial dilutions of test compound in 100 μL of the appropriate broth media were first prepared in 96-well round bottom microtiter plates (Nalgene Nunc International, Rochester, N.Y., USA). An equivalent volume (100 μL) of bacterial broth inocula containing approximately 10^5 bacterial cfu/mL was added to each well to give final concentrations of test compound starting at 200 μM. The plates were then incubated aerobically at 37° C. All strains were incubated overnight. After incubations, in all cases the MIC was recorded as the lowest concentration of drug that prevented bacterial growth. The bacterial strains for which MIC was determined as described in Table 4.

[3] = tested on: S. aureus USA 300; test: as above; type: cell-based; details: Staphylococcus aureus
Procedure: as §1

[4] = tested on: MRSA NRS70; test: as above; type: cell-based; details: Staphylococcus aureus
Procedure: as §1

[5] = tested on: E. faecails; test: as above; type: cell-based; details: Enterococcus faecalis
Procedure: as §1

[6] = tested on: S. aureus ΔClpP; test: as above; type: cell-based, Staphylococcus aureus; details: MIC; ClpP inactivated
Procedure: as §1

[7] = ATCC29213, read-out: Minimal Inhibitory Concentrations (μM) S. aureus ATCC 29213, MIC
[8] = USA300, read-out: Minimal Inhibitory Concentrations (μM) S. aureus USA 300, MIC
[9] = read-out: Minimal Inhibitory Concentrations (μM) MRSA NRS70, MIC
[10] = read-out: Minimal Inhibitory Concentrations (μM) E. faecails, MIC
[11] = ATCC29213, MIC, read-out: Minimal Inhibitory Concentrations (μM) S. aureus ATCC 29213
[12] = USA300, MIC, read-out: Minimal Inhibitory Concentrations (μM) S. aureus USA 300
[13] = MIC, read-out: Minimal Inhibitory Concentrations (μM) MRSA NRS70
[14] = MIC, read-out: Minimal Inhibitory Concentrations (μM) E. faecails

Row | Structure (SMILES) | EC50 [1] [nM] | MIC [2, 7] [µM] | MIC [3, 8] [µM] | MIC [4, 9] [µM] | MIC [5, 10] [µM] | Minimal Inhibitory Concentrations (μM) S. aureus ΔClpP [6] [µM] | MIC [2, 11] [µM] | MIC [3, 12] [µM] | MIC [4, 13] [µM] | MIC [5, 14] [µM]
1 | Cc1cccc(C[C@H](NC(=O)Nc2ccc(Cl)cc2)C(=O)N[C@@H]2C(=O)N3CCC[C@H]3C(=O)N3CC(=O)NC[C@H]3C(=O)N[C@@H](C)C(=O)N3C[C@H](C)C[C@H]3C(=O)O[C@H]2C)c1 [Compound 75, (S)-2-(3-(4-CHLOROPHENYL)UREIDO)-3-(M-TOLYL)-N-((6AS,12S,13S,15AS,17R,21S,23AS)-13,17,21-TRIMETHYL-3,6,11,15,20,23-HEXAOXOOCTADECAHYDRO-2H,6H,11H,15H-PYRAZINO[2,1-I]DIPYRROLO[2,1-C:2′,1′-L][1]OXA[4,7,10,13]TETRAAZACYCLOHEXADECIN-12-YL)PROPANAMIDE] ({NH(4-Cl-phenyl)-CO}-[Phe(3-Me)][aThr]P[X4]A[Pro(4R-Me)]; ester 2-C) | 1210 ± 1000 | 20 (≈ 16.4 µg/mL) | 10 (≈ 8.21 µg/mL) | 20 (≈ 16.4 µg/mL) | > 20 | >20 |  |  |  | 
2 | Cc1cccc(C[C@H](NC(=O)Nc2ccc(Cl)c(F)c2)C(=O)N[C@@H]2C(=O)N3C[C@H](O)C[C@H]3C(=O)N3CCCC[C@H]3C(=O)N[C@@H](C)C(=O)N3C[C@@H](C)C[C@H]3C(=O)O[C@H]2C)c1 [Compound 77, (S)-2-(3-(4-CHLORO-3-FLUOROPHENYL)UREIDO)-N-((2S,6S,8AS,14AS,16R,20S,21S,23AS)-16-HYDROXY-2,6,21-TRIMETHYL-5,8,14,19,23-PENTAOXOOCTADECAHYDRO-1H,5H,14H,19H-PYRIDO[2,1-I]DIPYRROLO[2,1-C:2′,1′-L][1]OXA[4,7,10,13]TETRAAZACYCLOHEXADECIN-20-YL)-3-(M-TOLYL)PROPANAMIDE] ({X2-CO}-[Phe(3-Me)][aThr][Hyp][Pip]A[Pro(4S-Me)]; ester 2-C) | 450 ± 200 |  |  |  |  | 5 | 0.625 (≈ 0.525 µg/mL) | 1.25 (≈ 1.05 µg/mL) | 0.625 (≈ 0.525 µg/mL) | 1.25 (≈ 1.05 µg/mL)
3 | CCc1ccc(NC(=O)N[C@@H](Cc2cccc(C)c2)C(=O)N[C@H]2COC(=O)[C@@H]3CCCN3C(=O)[C@H](C)NC(=O)[C@@H]3CCCCN3C(=O)[C@@H]3C[C@@H](O)CN3C2=O)cc1 [Compound 55, (S)-2-(3-(4-ETHYLPHENYL)UREIDO)-N-((6S,8AS,14AS,16R,20S,23AS)-16-HYDROXY-6-METHYL-5,8,14,19,23-PENTAOXOOCTADECAHYDRO-1H,5H,14H,19H-PYRIDO[2,1-I]DIPYRROLO[2,1-C:2′,1′-L][1]OXA[4,7,10,13]TETRAAZACYCLOHEXADECIN-20-YL)-3-(M-TOLYL)PROPANAMIDE] | 1050 ± 1000 |  |  |  |  | >20 | 5 (≈ 3.94 µg/mL) | 2.5 (≈ 1.97 µg/mL) | 2.5 (≈ 1.97 µg/mL) | 2.5 (≈ 1.97 µg/mL)
4 | Cc1cccc(C[C@H](NC(=O)Nc2ccc(Cl)cc2)C(=O)N[C@H]2COC(=O)[C@@H]3CCCN3C(=O)[C@H](C)NC(=O)[C@@H]3CCCCN3C(=O)[C@@H]3C[C@@H](O)CN3C2=O)c1 [Compound 56, (S)-2-(3-(4-CHLOROPHENYL)UREIDO)-N-((6S,8AS,14AS,16R,20S,23AS)-16-HYDROXY-6-METHYL-5,8,14,19,23-PENTAOXOOCTADECAHYDRO-1H,5H,14H,19H-PYRIDO[2,1-I]DIPYRROLO[2,1-C:2′,1′-L][1]OXA[4,7,10,13]TETRAAZACYCLOHEXADECIN-20-YL)-3-(M-TOLYL)PROPANAMIDE] | 1330 ± 2500 | 5 (≈ 3.97 µg/mL) | 2.5 (≈ 1.99 µg/mL) | 10 (≈ 7.94 µg/mL) | 2.5 (≈ 1.99 µg/mL) | >20 |  |  |  | 
5 | CCc1ccc(NC(=O)N[C@@H](Cc2cccc(C)c2)C(=O)N[C@@H]2C(=O)N3C[C@H](O)C[C@H]3C(=O)N3CCCC[C@H]3C(=O)N[C@@H](C)C(=O)N3C[C@@H](C)C[C@H]3C(=O)O[C@H]2C)cc1 [Compound 65, (S)-2-(3-(4-ETHYLPHENYL)UREIDO)-N-((2S,6S,8AS,14AS,16R,20S,21S,23AS)-16-HYDROXY-2,6,21-TRIMETHYL-5,8,14,19,23-PENTAOXOOCTADECAHYDRO-1H,5H,14H,19H-PYRIDO[2,1-I]DIPYRROLO[2,1-C:2′,1′-L][1]OXA[4,7,10,13]TETRAAZACYCLOHEXADECIN-20-YL)-3-(M-TOLYL)PROPANAMIDE] ({NH(4-Et-phenyl)-CO}-[Phe(3-Me)][aThr][Hyp][Pip]A[Pro(4S-Me)]; ester 2-C) | 410 ± 100 |  |  |  |  | >20 | 0.313 (≈ 0.255 µg/mL) | 0.156 (≈ 0.127 µg/mL) | 0.156 (≈ 0.127 µg/mL) | 1.25 (≈ 1.02 µg/mL)
6 | Cc1cccc(C[C@H](NC(=O)Nc2ccc(Cl)cc2)C(=O)N[C@@H]2C(=O)N3C[C@H](O)C[C@H]3C(=O)N3CCCC[C@H]3C(=O)N[C@@H](C)C(=O)N3C[C@@H](C)C[C@H]3C(=O)O[C@H]2C)c1 [Compound 66, (S)-2-(3-(4-CHLOROPHENYL)UREIDO)-N-((2S,6S,8AS,14AS,16R,20S,21S,23AS)-16-HYDROXY-2,6,21-TRIMETHYL-5,8,14,19,23-PENTAOXOOCTADECAHYDRO-1H,5H,14H,19H-PYRIDO[2,1-I]DIPYRROLO[2,1-C:2′,1′-L][1]OXA[4,7,10,13]TETRAAZACYCLOHEXADECIN-20-YL)-3-(M-TOLYL)PROPANAMIDE] ({NH(4-Cl-phenyl)-CO}-[Phe(3-Me)][aThr][Hyp][Pip]A[Pro(4S-Me)]; ester 2-C) | 160 ± 100 | 0.625 (≈ 0.514 µg/mL) | 0.313 (≈ 0.257 µg/mL) | 1.25 (≈ 1.03 µg/mL) | 1.25 (≈ 1.03 µg/mL) | >20 |  |  |  | 
7 | Cc1cccc(C[C@H](NC(=O)Nc2cccc(Cl)c2)C(=O)N[C@@H]2C(=O)N3C[C@H](O)C[C@H]3C(=O)N3CCCC[C@H]3C(=O)N[C@@H](C)C(=O)N3CCC[C@H]3C(=O)O[C@H]2C)c1 [Compound 60, (S)-2-(3-(3-CHLOROPHENYL)UREIDO)-N-((6S,8AS,14AS,16R,20S,21S,23AS)-16-HYDROXY-6,21-DIMETHYL-5,8,14,19,23-PENTAOXOOCTADECAHYDRO-1H,5H,14H,19H-PYRIDO[2,1-I]DIPYRROLO[2,1-C:2′,1′-L][1]OXA[4,7,10,13]TETRAAZACYCLOHEXADECIN-20-YL)-3-(M-TOLYL)PROPANAMIDE] ({NH(3-Cl-phenyl)-CO}-[Phe(3-Me)][aThr][Hyp][Pip]AP; ester 2-C) | 1470 ± 1100 | > 20 | 10 (≈ 8.08 µg/mL) | 5 (≈ 4.04 µg/mL) | > 20 |  |  |  |  | 
